Data reported in patent US8906866B2, “Antibiotic compositions for the treatment of gram negative infections” (priority 2010, dated 2014).
*1 amine or outer side, *2 acyl side, *3 side chain or, on linkers, in order; H or OH if unused. Where a SMILES comes first, the peptide text is derived from it. Bridges are numbered along the chain shown (N, C = ends). [ ]: non-standard residue; d: D form. The star is where a group is joined. ξ: configuration not given here. Octanoyl(6-Me) = CCC(C)CCCCC(=O)*; Thr(3ξ) = CC(O)[C@H](N)C(=O)O; NH(2-ClPh) = Clc1ccccc1N*; X1 = CC[C@H](C)CCCCC(=O)*; dDab = NCC[C@@H](N)C(=O)O; Dab = NCC[C@H](N)C(=O)O; CO = O=C([*:1])[*:2]; ξDab = NCCC(N)C(=O)O

Assays:
[1] = test system: E. coli; assay: MIC50/90 against small panels (n = 35); format: cell-based, Escherichia coli; parameters: key: A: a MIC value measurement that is the same as that observed for polymyxin B; a MIC value measured that is lower than the comparable value observed for polymxin B; a MIC value measured that is higher than the comparable value observed for polymyxin B; conditions: small panel n = 35, relative to polymyxin B
Description: (§1) Antibacterial potency can be assessed by broth microdilution according to CLSI guidelines, plates can be incubated at 37° C., and aeration (rotation at 200 rpm) can be employed. In some assays, surfactant (Survanta, Abbott Laboratories) can be added to give a final concentration of 1, 10 and 40% in caMHB. Native polymyxin A, polymyxin B and the comparator compound of Formula II (polymyxin B decapeptide with an o-chlorophenyl urea tail) were included for comparison.

[2] = test system: E. coli; assay: MIC50 and MIC90, CLSI broth microdilution, panel of Gram negative strains; format: cell-based, Escherichia coli; parameters: key: A: a measured MIC value equal to that of polymyxin B; a measured MIC value less than the corresponding MIC value measured for polymyxin B; a measured MIC value greater than the corresponding MIC value measured for polymyxin B; conditions: relative to polymyxin B; some strains multi-drug resistant
Description: (§2) MIC testing can be performed according to Clinical and Laboratory Standards Institute (CLSI) M7-A7 (2006) broth microdilution methods. Unless otherwise indicated, MIC values are provided in units of micrograms per milliliter.
(§3) One day prior to testing, individual colonies were isolated by streaking onto rich, non-selective Tryptic Soy agar with 5% lysed sheeps blood (TSAB) with incubation at 35-37° C. for 18-24 hours.
(§4) Cultures were prepared by touching 3-5 colonies into 3 mL of cation-adjusted Mueller Hinton Broth (caMHB) in a 14-mL tube (caMHB was prepared and sterilized according to manufacturer's specifications).
(§5) OD600 of growing cultures was measured and adjusted to approximately 10^5 colony forming units per mL (CFU/mL) in caMHB for MIC inoculation (approximately OD600 0.001).
(§6) Diluted cultures were used to inoculate 50 μL per well in broth microdilution assays (final volume 100 μl per well; compounds were prepared in two-fold dilutions).
(§7) Plates were incubated 16-20 hours at 37° C., with shaking at 200 rpm.
(§8) OD600 was determined for all wells. Growth was defined as OD600>0.1. MICs were defined as the lowest concentration producing no visible turbidity (OD600<0.1).

[3] = test system: K. pneu; assay: as above; format: cell-based, Klebsiella pneumoniae; parameters: key: A: a measured MIC value equal to that of polymyxin B; a measured MIC value less than the corresponding MIC value measured for polymyxin B; a measured MIC value greater than the corresponding MIC value measured for polymyxin B; conditions: relative to polymyxin B; some strains multi-drug resistant
Description: as §2, §3, §4, §5, §6, §7, §8

[4] = test system: P. aeru; assay: as above; format: cell-based, Pseudomonas aeruginosa; parameters: key: A: a measured MIC value equal to that of polymyxin B; a measured MIC value less than the corresponding MIC value measured for polymyxin B; a measured MIC value greater than the corresponding MIC value measured for polymyxin B; conditions: relative to polymyxin B, some strains multi-drug resistant
Description: as §2, §3, §4, §5, §6, §7, §8

[5] = test system: P. aeruginosa 44; assay: MIC against the primary screening panel (broth microdilution); format: cell-based, Pseudomonas aeruginosa; parameters: key: A: a MIC value measurement that is the same as that observed for polymyxin B; a MIC value measured that is lower than the comparable value observed for polymxin B; a MIC value measured that is higher than the comparable value observed for polymyxin B; conditions: relative to polymyxin B
Description: as §1

[6] = test system: A. baumannii 1570; assay: as above; format: cell-based, Acinetobacter baumannii; parameters: key: A: a MIC value measurement that is the same as that observed for polymyxin B; a MIC value measured that is lower than the comparable value observed for polymxin B; a MIC value measured that is higher than the comparable value observed for polymyxin B; conditions: relative to polymyxin B
Description: as §1

[7] = test system: E. coli 1527; assay: as above; format: cell-based, Escherichia coli; parameters: key: A: a MIC value measurement that is the same as that observed for polymyxin B; a MIC value measured that is lower than the comparable value observed for polymxin B; a MIC value measured that is higher than the comparable value observed for polymyxin B; conditions: relative to polymyxin B
Description: as §1

[8] = test system: P. aeruginosa 44; assay: Neutropenic mouse lung infection model; format: in vivo; conditions: for Lungs cleared within one log10 of limit of detection: 8 through 20 mg/kg dose levels
Description: Compound of Formula (Ia) was tested in a murine thigh model. For the thigh model, female CD-1 mice were rendered neutropenic by IP injection on days −4 and −1 with 150 and 100 mg/kg cyclophosphamide, respectively. On day 0 mice were infected with 1×10^7 colony-forming units (cfu) of A. baumannii 1570 in one thigh muscle, and then administered compound SC in a dose ranging from 2 to 12 mg/kg at 1 and 6 hours post-infection.
The mouse lung model was run in the same manner as the thigh infection model, except that mice were infected IN with 1×10^7 cfu of P. aeruginosa 44 on day 0. Doses administered in the lung study ranged from 8 to 20 mg/kg. The ED−3log10 was based on cfu determination from the lung tissue 24 hours post-infection.

[9] = test system: P. aeruginosa #44; assay: MICs for P. aeruginosa #44 in the presence of surfactant; format: cell-based, Pseudomonas aeruginosa; parameters: key: A: a MIC value measurement that is the same as that observed for polymyxin B; a MIC value measured that is lower than the comparable value observed for polymxin B; a MIC value measured that is higher than the comparable value observed for polymyxin B
Description: as §1

[10] = test system: K. pneumoniae 933; assay: MIC against the primary screening panel (broth microdilution); format: cell-based, Klebsiella pneumoniae; parameters: key: A: a MIC value measurement that is the same as that observed for polymyxin B; a MIC value measured that is lower than the comparable value observed for polymxin B; a MIC value measured that is higher than the comparable value observed for polymyxin B; conditions: relative to polymyxin B
Description: as §1

[11] = test system: A. baumannii; assay: MIC50/90 against small panels (n = 35); format: cell-based, Acinetobacter baumannii; parameters: key: A: a MIC value measurement that is the same as that observed for polymyxin B; a MIC value measured that is lower than the comparable value observed for polymxin B; a MIC value measured that is higher than the comparable value observed for polymyxin B; conditions: small panel n = 35, relative to polymyxin B
Description: as §1

[12] = test system: A. baum; assay: MIC50 and MIC90, CLSI broth microdilution, panel of Gram negative strains; format: cell-based, Acinetobacter baumannii; parameters: key: A: a measured MIC value equal to that of polymyxin B; a measured MIC value less than the corresponding MIC value measured for polymyxin B; a measured MIC value greater than the corresponding MIC value measured for polymyxin B; conditions: relative to polymyxin B; some strains multi-drug resistant
Description: as §2, §3, §4, §5, §6, §7, §8

[13] = test system: K. pneumoniae; assay: MIC50/90 against small panels (n = 35); format: cell-based, Klebsiella pneumoniae; parameters: key: A: a MIC value measurement that is the same as that observed for polymyxin B; a MIC value measured that is lower than the comparable value observed for polymxin B; a MIC value measured that is higher than the comparable value observed for polymyxin B; conditions: small panel n = 35, relative to polymyxin B
Description: as §1

[14] = test system: P. aeruginosa; assay: MIC50/90 against small panels (n = 35); format: cell-based, Pseudomonas aeruginosa; parameters: key: A: a MIC value measurement that is the same as that observed for polymyxin B; a MIC value measured that is lower than the comparable value observed for polymxin B; a MIC value measured that is higher than the comparable value observed for polymyxin B; conditions: small panel n = 35, relative to polymyxin B
Description: as §1

[15] = test system: P. aeruginosa #44; assay: MIC against P. aeruginosa #44 in polystyrene plate; format: cell-based, Pseudomonas aeruginosa; conditions: range of repeated tests
Description: P. aeruginosa #44 were grown in cation adjusted Mueller Hinton Broth (caMHB) (catalog#B12322; Fisher Scientific, Pittsburgh, Pa.) at 37° C. MIC testing was performed according to Clinical and Laboratory Standards Institute [CLSI, formerly National Committee for Clinical Laboratory Standards (NCCLS), Wayne, Pa.] guidelines for broth microdilution. […]

[16] = Acute toxicity testing in rats; format: in vivo, Sprague-Dawley rat; conditions: 1 mg/kg i.v., female Sprague-Dawley rat
Description: One female Sprague-Dawley rat was administered a 1 mg/kg dose of the test Compound 5. Clinical observations were taken immediately following the administration of compound and at 0.5, 1, 2 and 4 hours post-dose.

[17] = neutropenic mouse lung, P. aeruginosa 44, SC, BID×1 d, cfu 24 hours post-infection

## CC(C)C[C@@H]1NC(=O)[C@@H](Cc2ccccc2)NC(=O)[C@H](CCN)NC(=O)C(NC(=O)[C@H](CCN)NC(=O)[C@@H](NC(=O)[C@H](CCN)NC(=O)Nc2ccccc2Cl)C(C)O)CCNC(=O)[C@H](C(C)O)NC(=O)[C@H](CCN)NC(=O)C(CCN)NC1=O (stereo partly shown) [Formula (II) comparator] ({NH(2-ClPh)-CO}-[Dab][Thr(3ξ)][Dab][ξDab][Dab][dF]L[ξDab][Dab][Thr(3ξ)]; lactam 4-C)
[1]
  E. coli MIC50: C
  E. coli MIC90: C
[2]
  E. coli MIC50: C
  E. coli MIC90: C
[3]
  K. pneu MIC 50: C
  K. pneu MIC 90: C
[4]; listed as 2
  P. aeru MIC 50: B and A
  P. aeru MIC 90: A and C
[5]
  MIC P. aeruginosa 44: C
[6]
  MIC A. baumannii 1570: C
[7]
  MIC E. coli 1527: C
[8]
  Lungs cleared within one log10 of limit of detection: not seen
[8]; historical data
  ED−3log10: approximately 12 mg/kg
[9]; relative to polymyxin B
  MIC P. aeruginosa #44, 0% surfactant: C
  MIC P. aeruginosa #44, 10% surfactant: B
  MIC P. aeruginosa #44, 40% surfactant: A
[10]
  MIC K. pneumoniae 933: C
[11]
  A. baumannii MIC50: C
  A. baumannii MIC90: C
[12]
  A. baum MIC 50: C
  A. baum MIC 90: C
[13]
  K. pneumoniae MIC50: C
  K. pneumoniae MIC90: C
[14]
  P. aeruginosa MIC50: B
  P. aeruginosa MIC90: A

## CCC(C)CCCCC(=O)N[C@@H](CCN)C(=O)N[C@H](C(=O)N[C@@H](CCN)C(=O)NC1CCNC(=O)[C@H](C(C)O)NC(=O)[C@H](CCN)NC(=O)C(CCN)NC(=O)[C@H](CC(C)C)NC(=O)[C@@H](Cc2ccccc2)NC(=O)[C@H](CCN)NC1=O)C(C)O (stereo partly shown) [Polymyxin B] ({Octanoyl(6-Me)}-[Dab][Thr(3ξ)][Dab][ξDab][Dab][dF]L[ξDab][Dab][Thr(3ξ)]; lactam 4-C)
[1]
  E. coli MIC50: A
  E. coli MIC90: A
[2]
  E. coli MIC50: A
  E. coli MIC90: A
[3]
  K. pneu MIC 50: A
  K. pneu MIC 90: A
[4]
  P. aeru MIC 50: A
  P. aeru MIC 90: A
[5]
  MIC P. aeruginosa 44: A
[6]
  MIC A. baumannii 1570: A
[15]
  MIC against P. aeruginosa #44 In polystyrene plate: 1-2 micrograms/ml
[7]
  MIC E. coli 1527: A
[8]
  Lungs cleared within one log10 of limit of detection: not observed
[8]; [17]
  ED−3log10: > 20 mg/kg
[8]; neutropenic mouse lung, P. aeruginosa 44, SC, BID×1 d, cfu 24 hours post-infection, listed as PMB
  ED−3log10: 20.6 mg/kg
[9]
  MIC P. aeruginosa #44, 0% surfactant: 0.06 micrograms/ml
  MIC P. aeruginosa #44, 10% surfactant: 8 micrograms/ml
  MIC P. aeruginosa #44, 40% surfactant: >32 micrograms/ml
[10]
  MIC K. pneumoniae 933: A
[11]
  A. baumannii MIC50: A
  A. baumannii MIC90: A
[12]
  A. baum MIC 50: A
  A. baum MIC 90: A
[13]
  K. pneumoniae MIC50: A
  K. pneumoniae MIC90: A
[14]
  P. aeruginosa MIC50: A
  P. aeruginosa MIC90: A

## Colistin
[15]
  MIC against P. aeruginosa #44 In polystyrene plate: 2-4 micrograms/ml

## CC[C@H](C)CCCCC(=O)N[C@@H](CCN)C(=O)N[C@H](C(=O)N[C@H](CCN)C(=O)N[C@H]1CCNC(=O)[C@H]([C@@H](C)O)NC(=O)[C@H](CCN)NC(=O)[C@H](CCN)NC(=O)[C@H]([C@@H](C)O)NC(=O)[C@@H](CC(C)C)NC(=O)[C@H](CCN)NC1=O)[C@@H](C)O [Native Polymyxin A, Polymyxin A] (X1-[Dab]T[dDab][Dab][Dab][dL]T[Dab][Dab]T; lactam 4-C)
[1]
  E. coli MIC50: B
  E. coli MIC90: A
[2]
  E. coli MIC50: B
  E. coli MIC90: A
[3]
  K. pneu MIC 50: C
  K. pneu MIC 90: C
[4]
  P. aeru MIC 50: A
  P. aeru MIC 90: C
[5]
  MIC P. aeruginosa 44: C
[6]
  MIC A. baumannii 1570: C
[16]
  Acute (anaphylactoid) observations: no clinical signs were observed
[7]
  MIC E. coli 1527: B
[8]
  Lungs cleared within one log10 of limit of detection: not observed
[8]; [17]
  ED−3log10: 16.22 mg/kg
[9]; relative to polymyxin B
  MIC P. aeruginosa #44, 0% surfactant: C
  MIC P. aeruginosa #44, 10% surfactant: B
  MIC P. aeruginosa #44, 40% surfactant: B
[10]
  MIC K. pneumoniae 933: A
[11]
  A. baumannii MIC50: A
  A. baumannii MIC90: A
[12]
  A. baum MIC 50: A
  A. baum MIC 90: A
[13]
  K. pneumoniae MIC50: C
  K. pneumoniae MIC90: C
[14]
  P. aeruginosa MIC50: A
  P. aeruginosa MIC90: C
